# From PubChem BioAssay AID179 (DTP/NCI, 2004)
# Calls of active or inactive are those of the source.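 How the source made its calls: active means compounds giving half or more protection of infected cells from virus-caused growth loss, again on retest; inactive means the rest.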
# Test system: CEM cells HIV-1 protection, formazan growth assay
# Assay: NCI AIDS Antiviral Assay
# Conditions: for IC50: measured here: growth of uninfected CEM cells
# Summary of the method: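 Protection of CEM cells against HIV-1 was scored from cell growth (soluble formazan) across five concentrations, with parallel uninfected cells. Lack of protection may reflect toxicity.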
Structure (SMILES),EC50 [µM],IC50 [µM],outcome
COC(=O)C(=O)C(C(=O)C(=O)Nc1ccc(C)c(C)c1)c1nc2ccc([N+](=O)[O-])cc2[nH]c1=O (centres undefined),> 537,234,
C/C=C(\C)c1cc(O)c(C)c2c1Oc1cc(O)c(Cl)c(C)c1C(=O)O2,,,inactive
CCOC(=O)c1ccc(C)c(N=NN(C)C)c1,,,inactive
N#C/C(=C\c1ccc(O)c(O)c1)C(=O)NCc1cccc(CNC(=O)/C(C#N)=C/c2ccc(O)c(O)c2)c1,> 200,10.2,
O=C(Oc1ccc(OC(Oc2ccccc2)c2ccccc2)cc1)c1ccccc1 (centres undefined),> 200,44.7,
CC1(C(=O)Nc2ccc3ccccc3c2)CC2(C)CC(C)(C1)C(O)NC2=O (centres undefined),,,inactive
CC(CC(C)(C)[N+](C)(C)C)[N+](C)(C)C (centres undefined),> 200,> 200,
O=C1c2ccccc2C(=O)c2c1c(-c1ccccc1)cc(CCO)c2-c1ccccc1,,,inactive
CN1C(=O)C(O)C[C@@H]1c1ccc(F)cc1 (some centres undefined),,,inactive
CCCCCCCNC(=S)N/N=C/c1ccccc1O,> 200,10.5,
COc1ccc(CNc2nc3ccccc3nc2C(=O)O)cc1OC,> 200,95.5,
COC(=O)c1cc(C#N)[nH]c1-c1ccc(Br)s1,> 200,4.37,
O=C(O)c1ccc(OCc2nc3cc(C(F)(F)F)ccc3nc2-c2ccccc2)cc1,> 200,33.9,
Cn1c(-c2ccc(/C=N/NC(=S)N/N=C/c3ccc(-c4c[n+]5ccsc5n4C)cc3)cc2)c[n+]2ccsc12,> 200,117,
O=C(NP1(=O)NCc2ccccc2CN1)OC1CCCCC1,> 288,> 288,
COC(=O)/C=C1/C(COC(c2ccccc2)(c2ccccc2)c2ccccc2)OC(n2ccc(=O)[nH]c2=O)C1O[Si](C)(C)C(C)(C)C (centres undefined),> 200,10.7,
CC(=O)OCC1OC(NC(=S)Nn2c(-c3ccccc3)nc3ccccc3c2=O)C(OC(C)=O)C(OC(C)=O)C1OC(C)=O (centres undefined),> 200,> 100,
Clc1ccc(C(c2ccccc2Cl)C(Cl)Cl)cc1 (centres undefined),> 200,61.7,
CC1C(=O)NC(=O)NC1=O,> 200,> 200,
CCOC(=O)n1c2ccccc2c(=O)n1CCO,> 200,> 200,
S=C(c1c[nH]c2ccccc12)N1CCOCC1,> 200,> 200,
O=C1CC(=O)NC(=NNS(=O)(=O)c2ccccc2)N1,> 200,> 200,

Structure (SMILES),EC50 [µM],IC50 [µM],outcome
C=C1CC(CN2CCC(=O)NC2=O)(c2ccccc2)OC1=O (centres undefined),> 200,1.48,
COC(=O)/C(=N\NC(=S)NN)C(C(=O)C(=O)Nc1ccccc1C(N)=O)c1nc2ccccc2[nH]c1=O (centres undefined),> 347,> 347,
CC(C)(C)c1cc(/C=C\C(=O)c2ccc([N+](=O)[O-])cc2)cc(C(C)(C)C)c1O,> 10,> 10,
CC(=O)Nc1ccc(SS(=O)(=O)c2ccc(NC(C)=O)cc2)cc1,> 490,204,
Nc1nc(NCC2(CO)CC2)cc(=O)[nH]1,> 200,> 200,
CC(=O)CC1(OC(=O)C2C(C=C(C)C)C2(C)C)C(=O)Nc2ccccc21 (centres undefined),> 200,105,
N#CC1(C#N)C(=O)c2ccncc2C1=O,> 200,> 200,
CCOC(=O)C1(C(=O)OCC)CCC(C(OC)OC)C(CC(=O)OC)C1 (centres undefined),> 200,> 200,
O=[N+]([O-])CC(SCc1ccccc1)c1ccc2c(c1)OCO2 (centres undefined),,,inactive
O=C(/C=C/C(=O)N/N=C/c1cc(S(=O)(=O)O)c2cccnc2c1O)N/N=C/c1cc(S(=O)(=O)O)c2cccnc2c1O,178,> 200,
COC(CN(C(=O)c1ccccc1)C1CCC2(SCCS2)c2[nH]c3ccccc3c21)OC (centres undefined),> 200,14.5,
CC1(C)C(=C(C#N)C#N)C(C)(C)C1=C(C#N)C#N,> 100,> 100,
Cc1ccc(C(=O)Nc2ccc(S(=O)(=O)[O-])c3cc(S(=O)(=O)[O-])cc(S(=O)(=O)[O-])c23)cc1NC(=O)c1cccc(NC(=O)Nc2cccc(C(=O)Nc3cc(C(=O)Nc4ccc(S(=O)(=O)[O-])c5cc(S(=O)(=O)[O-])cc(S(=O)(=O)[O-])c45)ccc3C)c2)c1.[Ga],> 759,42.7,
CC1=C(C(=O)NNC(=O)C[n+]2ccccc2)CC(C(=O)NNC(=O)C[n+]2ccccc2)=C(C)N1,> 200,> 200,
Cc1ccc2c(c1)C(=O)N1CCC[C@H]1C=N2,> 200,3.63,
NC(CCCCNc1ccn(C2OC(CO)C(O)C2O)c(=O)n1)C(=O)O (centres undefined),> 100,5.5,
COc1ccc(/C(C)=N/NC(N)=S)c(OC)c1,,,inactive
O=Cc1c(O)c(C(=O)Nc2ccc3[nH]c(=O)[nH]c3c2)cc2ccccc12,> 38.9,> 38.9,
COc1cc2ccc(CC#N)cc2cc1OC,,,inactive
Nc1ccc2oc(=O)c(C(=O)O)cc2c1,> 363,162,
Cc1cc(-c2ccc(C(=O)C(Cl)(Cl)Cl)[nH]2)on1,> 200,17.8,
C1CN1c1nc(N2CC2)nc(N2CC2)n1,> 91.2,1.05,

Structure (SMILES),EC50 [µM],IC50 [µM],outcome
N#Cc1c(N2CCCC2)nsc1NCc1ccccc1,> 200,> 200,
CP(C)CC[PH+](CC[PH+](C)C)CC[PH+](C)C.[C-]#[O+].[C-]#[O+].[W],,,inactive
FC(F)(F)C1(C(F)(F)F)OC(Cl)(Cl)C(Cl)(Cl)O1,> 200,> 200,
CCCCCCCCC1=C(OC)C(=O)c2c(C)cc(Cl)nc2C1=O,,,inactive
CCOC(=O)c1cc2c(OCc3ccccc3)c(OC)cc3c2c(n1)N(c1ccc(OC)cc1)C(C)C3 (centres undefined),> 10.5,> 10.5,
O=C(O)C1(Cc2ccccc2)Cc2cc3c(cc2C1)CCC3,> 200,93.3,
CCOC1CCN(C(=O)c2ccccc2)O1 (centres undefined),> 200,> 200,
Cc1n[nH]c(=O)n1/N=C\CC/C=N\n1c(C)n[nH]c1=O,> 200,> 200,
C=CC1C2=C(C(=O)NCC2)C2OC(O)C3=C(CCNC3=O)C2C1C (centres undefined),,,inactive
COCCOC(C)C(=O)C(O)S(=O)(=O)O (centres undefined),> 200,186,
N=c1n(CC(=O)NC23CC4CC(CC(C4)C2)C3)c2ccccc2n1CC(=O)NC12CC3CC(CC(C3)C1)C2,> 200,3.72,
NC(N)=NS(=O)(=O)c1ccc(Nc2c3ccccc3nc3c(C(=O)Nc4ccc(S(N)(=O)=O)cc4)cccc23)cc1,8.32,31.6,
CC(=O)OC(C)C1C2=C(C(=O)CC1(C)O)C(=O)c1c(ccc(-c3ccc4c(c3O)C(=O)C3=C(C4=O)C(C(C)OC(C)=O)C(C)(O)CC3=O)c1O)C2=O (centres undefined),> 66.1,0.263,
CCc1ccccc1N1C(=O)C(=O)C(c2nc3ccccc3s2)C(=O)C1=O,> 178,93.3,
COC(=O)C(=O)/C(=C\N1C(=O)CC(=O)NC1=S)C(=O)c1ccc([N+](=O)[O-])cc1,> 200,> 200,
CC(=O)Oc1ccc(/C=C/C(=O)OCCCOC(=O)/C=C/c2ccc(OC(C)=O)c(OC(C)=O)c2)cc1OC(C)=O,> 100,> 100,
CC(Oc1ccc(OCC2CCCCC2)cc1)C(=O)NCc1ccco1 (centres undefined),> 28.2,> 28.2,
COC(=O)/C(C#N)=C(\Nc1ccccc1)N1CCOCC1,> 200,> 200,
COC1=CC(=O)C(=O)c2c(C)ccnc21,,,inactive
O=C1C=C(Br)C(=O)C(Br)=C1,> 257,23.4,
CCOP(=O)(OCC)C(C)(C)OC(=O)NC(F)(F)F,> 200,> 200,
COC(=O)NC1C(C)OC(OC2C/C=C(/C)C3C=CC4C(OC5CC(OC6CCC(OC7CC(O)C(OC8CCC(O)C(C)O8)C(C)O7)C(C)O6)C(OC(C)=O)C(C)O5)C(C)CC(C)C4C3(C)/C(O)=C3/C(=O)OC4(CC(C=O)=CC(O)C4/C=C\2C)C3=O)CC1(C)[N+](=O)[O-] (centres undefined),> 186,0.191,

Structure (SMILES),EC50 [µM],IC50 [µM],outcome
N#Cc1nc(CCc2nc(C#N)c(N)o2)oc1N,> 200,> 200,
COc1cc(C=C2C(=O)NC(=O)NC2=O)cc(OC)c1OC,> 427,257,
Cc1cc([N+](=O)[O-])ccc1Sc1c2ccccc2nc2cc(Cl)ccc12,> 19.1,> 19.1,
N#CC(C#N)SCc1ccccc1,,,inactive
C=CCC(/C=C\CC)(C(=O)O)C(=O)O,> 661,> 661,
O=c1oc2ccccc2n1CCN1CCCCC1,> 200,> 200,
COC(=O)[C@H](C)NC(=O)[C@H](CSC)N1C(=O)N[C@@H](C(C)C)C1=O,> 200,24.5,
CCCCn1c(-c2ccccc2)cs/c1=N\Nc1nc2c(c(=O)n(C)c(=O)n2C)n1C,> 200,10.7,
O=NNc1ccc(SSc2ccc(NN=O)cc2)cc1,> 200,79.4,
COc1cc2c(cc1OC)Cc1cc(OC)c(OC)cc1Cc1cc(OC)c(OC)cc1C2,,,inactive
CN(C)CC1CCCCC(CN(C)C)C1=O (centres undefined),,,inactive
CCN(CC)C(=O)Cc1c(C(=O)N(CC)CC)c(=O)nc2sccn12,> 692,> 692,
COc1cc(C(C)(C)C)c(OC(=O)/C=C/C(=O)O/C=C/[N+](=O)[O-])c(C(C)(C)C)c1,> 200,31.6,
COC1=CC(=O)OC(/C=C(C)/C=C/C2=C(C)CCCC2(C)C)C1 (centres undefined),,,inactive
O=C1CN(CCN2CCCCC2)CC(=O)N2Cc3ccccc3CN12,> 200,> 200,
[O-][N+](=Nc1ccccc1CO)c1ccccc1CO,110,> 200,
CC(C)(C)c1ccc(C2(Br)C(=O)NC(=O)C2=O)cc1 (centres undefined),> 200,> 200,
CCOC(=O)C1(C(=O)OCC)C=C(c2ccccc2)N(C2OC(COC(C)=O)C(OC(C)=O)C(OC(C)=O)C2OC(C)=O)C1=S (centres undefined),> 200,24.5,
COc1ccc(-c2c(C#N)c(N)nc3c2CCS(=O)(=O)c2ccccc2-3)cc1,> 200,> 200,
